Laboratory results taken from publication PMC4303209, “A novel phosphatidylinositol 3-kinase (PI3K) inhibitor directs a potent FOXO-dependent, p53-independent cell cycle arrest phenotype characterized by the differential induction of a subset of FOXO-regulated genes” (Breast Cancer Research : BCR, 2014).

Test system: MCF-7 breast cancer cells
Assay: Microarray gene expression analysis (Agilent whole human genome 4 x 44K; compound vs DMSO, LIMMA log2 fold change)
Assay type: cell-based
Details: Apoptosis genes

Oc1cccc(-c2nc(N3CCOCC3)c3oc4ncccc4c3n2)c1 [PI-103]
ITGB3BP log2FC (Gene 23421): 0.693
RYBP log2FC (Gene 23429): 0.361
HEY2 log2FC (Gene 23493): -0.116
SCRIB log2FC (Gene 23513): 0.029
CLCF1 log2FC (Gene 23529): -0.682
PRAME log2FC (Gene 23532): -0.450
DDAH2 log2FC (Gene 23564): 0.378
ZNF346 log2FC (Gene 23567): -0.012
CASP14 log2FC (Gene 23581): -0.041
NUP62 log2FC (Gene 23636): -0.627
PPP1R15A log2FC (Gene 23645): 0.513
AIPL1 log2FC (Gene 23746): 0.177
FKBP8 log2FC (Gene 23770): 0.044
BCL2L13 log2FC (Gene 23786): 0.110
MTCH1 log2FC (Gene 23787): 0.149
NGEF log2FC (Gene 25791): 0.857
SPDEF log2FC (Gene 25803): -0.186
TNFAIP8 log2FC (Gene 25816): 0.677
PRDX5 log2FC (Gene 25824): 0.047
BRMS1 log2FC (Gene 25855): -0.476
SIN3A log2FC (Gene 25942): 0.891
HIGD1A log2FC (Gene 25994): -0.106
SERBP1 log2FC (Gene 26135): 0.167
NOC2L log2FC (Gene 26155): -0.855
TIAM2 log2FC (Gene 26230): 0.365
AATF log2FC (Gene 26574): -0.415
GREM1 log2FC (Gene 26585): -0.405
CKAP2 log2FC (Gene 26586): 0.629
CYFIP2 log2FC (Gene 26999): 0.053
NGFRAP1 log2FC (Gene 27018): 0.277
ANKRD1 log2FC (Gene 27063): 0.350
GHITM log2FC (Gene 27069): 0.386
BBC3 log2FC (Gene 27113): 2.072
CIDEB log2FC (Gene 27141): -0.033
GLS2 log2FC (Gene 27165): 0.410
TNFRSF21 log2FC (Gene 27242): -1.071
PDCD4 log2FC (Gene 27250): 1.703
KLHL20 log2FC (Gene 27252): 0.115
CECR2 log2FC (Gene 27443): -0.150
DBNL log2FC (Gene 28988): -0.248
HIPK2 log2FC (Gene 28996): -0.140
SAP30BP log2FC (Gene 29115): -0.468
LGALS13 log2FC (Gene 29124): -0.059
CARD10 log2FC (Gene 29775): -0.449
SENP1 log2FC (Gene 29843): 0.227
TFPT log2FC (Gene 29844): -0.472
PNMA3 log2FC (Gene 29944): 0.668
UBQLN1 log2FC (Gene 29979): -0.069
ERO1L log2FC (Gene 30001): 0.078
SH3KBP1 log2FC (Gene 30011): 0.268
KCNIP3 log2FC (Gene 30818): 0.232
RRM2B log2FC (Gene 50484): 0.526
G0S2 log2FC (Gene 50486): -0.054
NOX4 log2FC (Gene 50507): 0.041
CHST11 log2FC (Gene 50515): -0.946
ARHGEF4 log2FC (Gene 50649): 0.008
ARHGEF3 log2FC (Gene 50650): 0.506
GLRX2 log2FC (Gene 51022): -0.261
RPS27L log2FC (Gene 51065): 0.277
APIP log2FC (Gene 51074): 0.039
NDUFA13 log2FC (Gene 51079): -0.041
GAL log2FC (Gene 51083): -0.333
SH3GLB1 log2FC (Gene 51100): 0.561
APH1A log2FC (Gene 51107): -0.371
UTP11L log2FC (Gene 51118): -0.906
IER3IP1 log2FC (Gene 51124): 0.357
ANGPTL4 log2FC (Gene 51129): -0.819
ING4 log2FC (Gene 51147): 1.595
LEF1 log2FC (Gene 51176): -0.888
BFAR log2FC (Gene 51283): 0.201
PLAC8 log2FC (Gene 51316): -0.057
TNFRSF12A log2FC (Gene 51330): -0.619
ANGPT4 log2FC (Gene 51378): 0.049
DDX41 log2FC (Gene 51428): -0.065
GULP1 log2FC (Gene 51454): 1.663
TRIAP1 log2FC (Gene 51499): -0.858
ZC3HC1 log2FC (Gene 51530): 0.156
PIAS4 log2FC (Gene 51588): -0.121
PIGT log2FC (Gene 51604): 0.362
TAF9B log2FC (Gene 51616): 0.327
PTRH2 log2FC (Gene 51651): -0.374
WWOX log2FC (Gene 51741): -0.808
SIX4 log2FC (Gene 51804): 0.497
IL20RA log2FC (Gene 53832): 0.039
CYCS log2FC (Gene 54205): -0.602
WNT4 log2FC (Gene 54361): -0.419
DNAJC10 log2FC (Gene 54431): 0.610
ZFAND6 log2FC (Gene 54469): 0.333
ADAMTSL4 log2FC (Gene 54507): -0.373
DDIT4 log2FC (Gene 54541): -1.201
ING3 log2FC (Gene 54556): 0.724
RRN3 log2FC (Gene 54700): -0.333
AHI1 log2FC (Gene 54806): 0.380
QRICH1 log2FC (Gene 54870): 0.076
TMEM161A log2FC (Gene 54929): -0.337
PHIP log2FC (Gene 55023): 1.071
USP47 log2FC (Gene 55031): 0.614
OXR1 log2FC (Gene 55074): 0.376
UACA log2FC (Gene 55075): 0.829
IFT57 log2FC (Gene 55081): 0.433
XKR8 log2FC (Gene 55113): 0.252
SHQ1 log2FC (Gene 55164): -0.188
FAIM log2FC (Gene 55179): 0.119
MAP1S log2FC (Gene 55201): -0.149
ATAD3A log2FC (Gene 55210): -0.126
STEAP3 log2FC (Gene 55240): -0.441
RHOT1 log2FC (Gene 55288): 0.535
RFK log2FC (Gene 55312): 0.631
PARL log2FC (Gene 55486): -0.181
TNFRSF19 log2FC (Gene 55504): -0.091
CCAR1 log2FC (Gene 55749): 0.552
PCID2 log2FC (Gene 55795): 0.323
RNF130 log2FC (Gene 55819): 0.00747
EAF2 log2FC (Gene 55840): 0.144
PSENEN log2FC (Gene 55851): -0.013
BCAP29 log2FC (Gene 55973): 0.083
TEX11 log2FC (Gene 56159): 0.000672
CTNNBL1 log2FC (Gene 56259): -0.138
DIABLO log2FC (Gene 56616): -0.156
ASAH2 log2FC (Gene 56624): -0.210
TRIM39 log2FC (Gene 56658): -0.128
BARHL1 log2FC (Gene 56751): -0.298
FMN2 log2FC (Gene 56776): 0.00262
SPHK2 log2FC (Gene 56848): -0.341
C8orf4 log2FC (Gene 56892): 0.00123
MEIS3 log2FC (Gene 56917): -0.122
DUSP22 log2FC (Gene 56940): 0.209
CIAPIN1 log2FC (Gene 57019): -0.420
PCBP4 log2FC (Gene 57060): -0.275
AVEN log2FC (Gene 57099): -0.638
CAMK1D log2FC (Gene 57118): -0.189
RTN4 log2FC (Gene 57142): -0.088
PAK7 log2FC (Gene 57144): 0.451
BIRC6 log2FC (Gene 57448): 0.144
TAOK1 log2FC (Gene 57551): 0.399
SEMA6A log2FC (Gene 57556): 0.047
SH3RF1 log2FC (Gene 57630): -0.495
USP28 log2FC (Gene 57646): 0.030
GPAM log2FC (Gene 57678): -0.052
CHD8 log2FC (Gene 57680): -0.161
TRIB3 log2FC (Gene 57761): 0.076
NGB log2FC (Gene 58157): -0.260
RBM25 log2FC (Gene 58517): 0.334
SAV1 log2FC (Gene 60485): 0.586
PROK2 log2FC (Gene 60675): -0.058
ELMO2 log2FC (Gene 63916): 0.585
CIDEC log2FC (Gene 63924): 0.292
FIGNL1 log2FC (Gene 63979): -0.235
PERP log2FC (Gene 64065): 0.731
MOAP1 log2FC (Gene 64112): 0.507
RRAGC log2FC (Gene 64121): 1.556
IFIH1 log2FC (Gene 64135): 0.872
ZMAT3 log2FC (Gene 64393): -0.151
ATG3 log2FC (Gene 64422): 0.194
SUDS3 log2FC (Gene 64426): -0.027
MICAL1 log2FC (Gene 64780): -0.125
PLEKHG2 log2FC (Gene 64857): -0.516
